This is an account of results in ChEMBL document CHEMBL5316324, “Discovery, Characterization, and Engineering of LvIC, an α4/4-Conotoxin That Selectively Blocks Rat α6/α3β4 Nicotinic Acetylcholine Receptors” (J Med Chem, 2023).

Assay [1] addresses T1, Nicotinic acetylcholine receptor alpha6/alpha3/beta4 (Rattus norvegicus) (UniProt P04757+P12392+P43143). In words: Inhibition of rat alpha6/alpha3beta4 nAChR expressed in Stage V-VI Xenopus laevis Oocytes assessed as acetylcholine-induced current response at 1 uM in presence of 100 uM acetylcholine by electrophysiological recording relative to control. On the set-up: scale not given: the % may be the effect or the level left. Conditions: Oocyte. Format: cell-based.

Assay [2] is described as follows: Inhibition of rat alpha6/alpha3 D152A mutant beta4 nAChR expressed in Stage V-VI Xenopus laevis Oocytes assessed as inhibition of acetylcholine-induced current in presence of acetylcholine by electrophysiological recording. Conditions: Oocyte. Format: cell-based.
Assay [3] in a line: Inhibition of rat alpha6/alpha3 E195A mutant beta4 nAChR expressed in Stage V-VI Xenopus laevis Oocytes assessed as inhibition of acetylcholine-induced current in presence of acetylcholine by electrophysiological recording. Format: cell-based. Conditions: Oocyte.
The target of assay [4] is Neuronal acetylcholine receptor; alpha3/beta4 (Rattus norvegicus) (UniProt P04757+P12392). In words: Inhibition of rat alpha3beta4 nAChR expressed in Stage V-VI Xenopus laevis Oocytes assessed as inhibition of acetylcholine-induced current at 10 uM in presence of acetylcholine by electrophysiological recording. Format: cell-based. As to conditions: Oocyte.
In assay [5] the target is Neuronal acetylcholine receptor subunit alpha-7 (Rattus norvegicus, UniProt Q05941). In words: Inhibition of rat alpha7 nAChR expressed in Stage V-VI Xenopus laevis Oocytes assessed as inhibition of acetylcholine-induced current in presence of acetylcholine by electrophysiological recording. Format: cell-based, Oocyte.
Neuronal acetylcholine receptor subunit alpha-7, sequence (Q05941 whole entry): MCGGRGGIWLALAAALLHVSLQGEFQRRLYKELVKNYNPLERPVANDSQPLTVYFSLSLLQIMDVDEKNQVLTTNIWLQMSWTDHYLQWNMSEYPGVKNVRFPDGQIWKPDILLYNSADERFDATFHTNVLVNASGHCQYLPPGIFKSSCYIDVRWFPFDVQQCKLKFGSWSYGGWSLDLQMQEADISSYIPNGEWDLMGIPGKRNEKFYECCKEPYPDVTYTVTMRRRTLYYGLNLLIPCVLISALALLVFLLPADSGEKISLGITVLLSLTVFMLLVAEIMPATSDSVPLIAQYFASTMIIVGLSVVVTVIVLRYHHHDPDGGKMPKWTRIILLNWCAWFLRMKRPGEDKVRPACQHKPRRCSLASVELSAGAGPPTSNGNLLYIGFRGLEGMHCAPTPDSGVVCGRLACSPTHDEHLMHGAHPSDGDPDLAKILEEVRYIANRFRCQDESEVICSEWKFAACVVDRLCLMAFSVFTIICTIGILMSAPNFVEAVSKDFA
The target in assay [6] is Nicotinic acetylcholine receptor alpha6/alpha3/beta4 (Rattus norvegicus, UniProt P04757+P12392+P43143). In words: Inhibition of rat alpha6/alpha3beta4 nAChR expressed in Stage V-VI Xenopus laevis Oocytes assessed as inhibition of acetylcholine-induced current in presence of acetylcholine by electrophysiological recording. Type of assay: cell-based, Oocyte.
Nicotinic acetylcholine receptor alpha6/alpha3/beta4, sequence (P04757 whole entry): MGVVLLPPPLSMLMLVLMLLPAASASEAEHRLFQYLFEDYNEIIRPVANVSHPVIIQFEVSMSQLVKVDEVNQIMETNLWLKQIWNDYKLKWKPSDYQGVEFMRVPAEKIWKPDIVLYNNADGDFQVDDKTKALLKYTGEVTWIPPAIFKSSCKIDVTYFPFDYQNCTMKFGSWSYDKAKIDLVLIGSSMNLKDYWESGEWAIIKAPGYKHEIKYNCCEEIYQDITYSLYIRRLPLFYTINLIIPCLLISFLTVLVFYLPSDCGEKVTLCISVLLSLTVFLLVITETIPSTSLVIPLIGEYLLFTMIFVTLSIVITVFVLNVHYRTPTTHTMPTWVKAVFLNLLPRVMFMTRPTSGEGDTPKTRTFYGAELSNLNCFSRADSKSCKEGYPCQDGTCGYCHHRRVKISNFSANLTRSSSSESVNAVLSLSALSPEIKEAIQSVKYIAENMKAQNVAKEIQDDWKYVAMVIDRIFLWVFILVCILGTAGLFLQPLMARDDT
Nicotinic acetylcholine receptor alpha6/alpha3/beta4, sequence (P12392 whole entry): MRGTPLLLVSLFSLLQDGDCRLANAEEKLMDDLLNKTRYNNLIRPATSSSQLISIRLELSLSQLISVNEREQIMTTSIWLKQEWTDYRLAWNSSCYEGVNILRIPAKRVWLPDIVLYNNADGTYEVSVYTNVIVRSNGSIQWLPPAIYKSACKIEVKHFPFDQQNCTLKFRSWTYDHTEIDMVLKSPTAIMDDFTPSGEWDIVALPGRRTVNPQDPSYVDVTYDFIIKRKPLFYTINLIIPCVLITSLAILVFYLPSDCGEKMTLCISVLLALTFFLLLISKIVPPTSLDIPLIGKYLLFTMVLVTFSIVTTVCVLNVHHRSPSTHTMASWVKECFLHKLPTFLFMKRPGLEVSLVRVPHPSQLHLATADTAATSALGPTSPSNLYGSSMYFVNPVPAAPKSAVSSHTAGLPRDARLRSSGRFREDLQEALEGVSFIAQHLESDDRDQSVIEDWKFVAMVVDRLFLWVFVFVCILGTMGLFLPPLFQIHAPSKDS
Nicotinic acetylcholine receptor alpha6/alpha3/beta4, sequence (P43143 whole entry): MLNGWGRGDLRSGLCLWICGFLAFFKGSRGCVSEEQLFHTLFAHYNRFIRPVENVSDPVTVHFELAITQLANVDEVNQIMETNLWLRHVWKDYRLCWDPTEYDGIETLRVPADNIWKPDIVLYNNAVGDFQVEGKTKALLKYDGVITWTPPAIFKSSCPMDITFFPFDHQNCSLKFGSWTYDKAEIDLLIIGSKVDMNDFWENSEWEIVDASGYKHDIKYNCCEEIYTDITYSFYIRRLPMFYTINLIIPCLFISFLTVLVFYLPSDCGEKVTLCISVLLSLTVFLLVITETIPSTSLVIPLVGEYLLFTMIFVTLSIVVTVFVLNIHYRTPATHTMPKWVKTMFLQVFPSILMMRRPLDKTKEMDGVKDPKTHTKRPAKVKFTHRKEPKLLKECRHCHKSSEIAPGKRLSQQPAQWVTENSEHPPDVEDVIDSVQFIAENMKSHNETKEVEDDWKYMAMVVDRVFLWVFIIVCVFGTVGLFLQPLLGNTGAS
The target of assay [7] is Nicotinic acetylcholine receptor alpha1/beta1/epsilon/delta (Mus musculus, UniProt P02716+P04756+P09690+P20782). In words: Inhibition of mouse alpha1/beta1deltaepsilon nAChR expressed in Stage V-VI Xenopus laevis Oocytes assessed as inhibition of acetylcholine-induced current in presence of acetylcholine by electrophysiological recording. Type of assay: cell-based, Oocyte.
Nicotinic acetylcholine receptor alpha1/beta1/epsilon/delta, sequence (P04756 whole entry): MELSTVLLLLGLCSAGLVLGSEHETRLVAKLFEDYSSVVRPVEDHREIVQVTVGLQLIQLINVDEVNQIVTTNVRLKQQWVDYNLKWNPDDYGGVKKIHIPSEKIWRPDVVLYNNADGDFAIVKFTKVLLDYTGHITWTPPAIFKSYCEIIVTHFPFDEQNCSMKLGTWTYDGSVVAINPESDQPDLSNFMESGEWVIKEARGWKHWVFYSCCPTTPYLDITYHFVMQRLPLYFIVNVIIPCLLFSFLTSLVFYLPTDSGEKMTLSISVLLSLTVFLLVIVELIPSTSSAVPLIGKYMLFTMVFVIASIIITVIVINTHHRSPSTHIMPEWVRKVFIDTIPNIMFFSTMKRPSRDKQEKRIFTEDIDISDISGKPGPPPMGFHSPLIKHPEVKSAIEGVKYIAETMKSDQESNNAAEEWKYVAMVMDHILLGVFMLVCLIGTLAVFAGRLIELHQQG
Nicotinic acetylcholine receptor alpha1/beta1/epsilon/delta, sequence (P09690 whole entry): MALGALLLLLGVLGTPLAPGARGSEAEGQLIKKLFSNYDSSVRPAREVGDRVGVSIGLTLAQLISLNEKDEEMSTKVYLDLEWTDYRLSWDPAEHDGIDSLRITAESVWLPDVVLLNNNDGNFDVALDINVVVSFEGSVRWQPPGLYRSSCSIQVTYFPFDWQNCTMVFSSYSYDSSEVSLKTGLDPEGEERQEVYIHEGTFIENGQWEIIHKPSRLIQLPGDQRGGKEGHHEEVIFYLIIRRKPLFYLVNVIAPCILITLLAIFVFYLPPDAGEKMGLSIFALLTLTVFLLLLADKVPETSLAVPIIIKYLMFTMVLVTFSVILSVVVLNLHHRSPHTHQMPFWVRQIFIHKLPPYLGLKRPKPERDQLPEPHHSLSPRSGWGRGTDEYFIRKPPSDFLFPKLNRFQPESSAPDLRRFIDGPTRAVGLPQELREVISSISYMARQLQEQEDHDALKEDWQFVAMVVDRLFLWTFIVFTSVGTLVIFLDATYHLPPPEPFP
Nicotinic acetylcholine receptor alpha1/beta1/epsilon/delta, sequence (P02716 whole entry): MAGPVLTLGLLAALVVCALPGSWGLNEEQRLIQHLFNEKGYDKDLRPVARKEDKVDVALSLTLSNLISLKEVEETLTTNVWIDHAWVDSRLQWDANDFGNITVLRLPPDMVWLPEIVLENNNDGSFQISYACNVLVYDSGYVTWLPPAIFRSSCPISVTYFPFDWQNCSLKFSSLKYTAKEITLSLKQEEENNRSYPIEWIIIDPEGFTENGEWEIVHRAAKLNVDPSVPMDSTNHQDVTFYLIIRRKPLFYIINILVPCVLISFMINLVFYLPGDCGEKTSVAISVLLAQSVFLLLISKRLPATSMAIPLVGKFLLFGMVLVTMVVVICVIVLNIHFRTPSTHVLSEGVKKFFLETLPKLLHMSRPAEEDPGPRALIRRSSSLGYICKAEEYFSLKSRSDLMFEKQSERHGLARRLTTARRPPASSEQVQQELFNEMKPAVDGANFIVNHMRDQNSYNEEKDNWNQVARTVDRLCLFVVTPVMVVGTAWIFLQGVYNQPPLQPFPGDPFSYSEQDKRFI
Nicotinic acetylcholine receptor alpha1/beta1/epsilon/delta, sequence (P20782 whole entry): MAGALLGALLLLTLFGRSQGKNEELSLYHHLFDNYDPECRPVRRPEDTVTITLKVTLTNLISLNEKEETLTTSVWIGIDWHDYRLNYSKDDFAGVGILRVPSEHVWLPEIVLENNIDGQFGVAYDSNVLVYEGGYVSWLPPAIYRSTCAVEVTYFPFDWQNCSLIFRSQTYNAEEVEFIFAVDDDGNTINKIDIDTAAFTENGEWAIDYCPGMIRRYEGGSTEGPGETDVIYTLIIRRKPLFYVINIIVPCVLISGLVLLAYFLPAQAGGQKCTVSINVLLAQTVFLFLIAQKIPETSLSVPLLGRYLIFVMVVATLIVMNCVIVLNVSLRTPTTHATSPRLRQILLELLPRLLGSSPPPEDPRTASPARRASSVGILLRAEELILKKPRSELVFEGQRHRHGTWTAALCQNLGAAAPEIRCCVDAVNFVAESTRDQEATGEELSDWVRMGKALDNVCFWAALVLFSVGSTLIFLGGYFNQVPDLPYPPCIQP

In assay [8] the target is Neuronal acetylcholine receptor; alpha4/beta2 (Rattus norvegicus) (UniProt P09483+P12390). The experiment in a line: Inhibition of rat alpha4/beta2 nAChR expressed in Stage V-VI Xenopus laevis Oocytes assessed as inhibition of acetylcholine-induced current at 10 uM in presence of acetylcholine by electrophysiological recording relative to control. Format: cell-based. Conditions: Oocyte.

The target in assay [9] is Neuronal acetylcholine receptor; alpha4/beta4 (Rattus norvegicus) (UniProt P09483+P12392). In words: Inhibition of rat alpha4/beta4 nAChR expressed in Stage V-VI Xenopus laevis Oocytes assessed as inhibition of acetylcholine-induced current at 10 uM in presence of acetylcholine by electrophysiological recording relative to control. Format: cell-based. Conditions: Oocyte.

The target of assay [10] is Neuronal acetylcholine receptor subunit alpha-7 (Rattus norvegicus) (UniProt Q05941). The experiment in a line: Inhibition of rat alpha7 nAChR expressed in Stage V-VI Xenopus laevis Oocytes assessed as inhibition of acetylcholine-induced current at 10 uM in presence of acetylcholine by electrophysiological recording relative to control. Format: cell-based. As to conditions: Oocyte.
Neuronal acetylcholine receptor subunit alpha-7 (Rattus norvegicus), sequence (Q05941 whole entry): as the sequence (Q05941 whole entry) above

The target in assay [11] is Nicotinic acetylcholine receptor alpha6/alpha3/beta2/beta3 (Rattus norvegicus) (UniProt P04757+P12390+P12391+P43143). The experiment in a line: Inhibition of rat alpha6/alpha3beta2beta3 nAChR expressed in Stage V-VI Xenopus laevis Oocytes assessed as inhibition of acetylcholine-induced current at 10 uM in presence of acetylcholine by electrophysiological recording relative to control. Format: cell-based. As to conditions: Oocyte.

In assay [12] the target is T1, Nicotinic acetylcholine receptor alpha6/alpha3/beta4 (Rattus norvegicus). In words: Inhibition of rat alpha6/alpha3beta4 nAChR expressed in Stage V-VI Xenopus laevis Oocytes assessed as inhibition of acetylcholine-induced current by measuring recovery time at 10 uM preincubated with compound for 5 mins followed by washout in presence of acetylcholine by electrophysiological recording. Conditions: Oocyte. Format: cell-based.

The subject of assay [13] is Oocyte. In words: Inhibition of rat alpha6/alpha3 D152A mutant beta4 nAChR expressed in Stage V-VI Xenopus laevis Oocytes assessed as acetylcholine-induced current response at 1 uM in presence of 100 uM acetylcholine by electrophysiological recording relative to control. Format: cell-based. Further details: scale not given: the % may be the effect or the level left.

The species entered for assay [14] is Rattus norvegicus. The experiment in a line: Inhibition of rat alpha6/alpha3 E195A mutant beta4 nAChR expressed in Stage V-VI Xenopus laevis Oocytes assessed as acetylcholine-induced current response at 1 uM in presence of 100 uM acetylcholine by electrophysiological recording relative to control. Format: cell-based.
In assay [15] the test system is Oocyte. The experiment in a line: Inhibition of rat alpha6/alpha3 D152A mutant beta4 nAChR expressed in Stage V-VI Xenopus laevis Oocytes assessed as acetylcholine-induced current response at 100 nM in presence of 100 uM acetylcholine by electrophysiological recording relative to control. Format: cell-based. On the set-up: scale not given: the % may be the effect or the level left.

In assay [16] the test system is Oocyte. In words: Inhibition of rat alpha6/alpha3 E195A mutant beta4 nAChR expressed in Stage V-VI Xenopus laevis Oocytes assessed as acetylcholine-induced current response at 100 nM in presence of 100 uM acetylcholine by electrophysiological recording relative to control. Format: cell-based.
Assay [17] deals with Oocyte. In words: Inhibition of rat alpha6/alpha3beta4 K57T mutant nAChR expressed in Stage V-VI Xenopus laevis Oocytes assessed as acetylcholine-induced current response at 1 uM in presence of 100 uM acetylcholine by electrophysiological recording relative to control. Type of assay: cell-based.
In assay [18] the test system is Oocyte. The experiment in a line: Inhibition of rat alpha6/alpha3beta4 K57T mutant nAChR expressed in Stage V-VI Xenopus laevis Oocytes assessed as acetylcholine-induced current response at 100 uM in presence of 100 uM acetylcholine by electrophysiological recording relative to control. Type of assay: cell-based.
Assay [19] relates to Oocyte. The experiment in a line: Inhibition of rat alpha6/alpha3 E34M mutant beta4 nAChR expressed in Stage V-VI Xenopus laevis Oocytes assessed as inhibition of acetylcholine-induced current by measuring recovery at 10 uM preincubated with compound for 5 mins followed by measured after 20 mins washout by electrophysiological recording. Further details: scale not given: the % may be the effect or the level left. Type of assay: cell-based. Conditions: time 25.0 min.

Assay [20] can be described thus: Inhibition of rat alpha6/alpha3beta4 E34M mutant nAChR expressed in Stage V-VI Xenopus laevis Oocytes assessed as inhibition of acetylcholine-induced current in presence of acetylcholine by electrophysiological recording. As to conditions: Oocyte. Type of assay: cell-based.
Assay [21] can be described thus: Inhibition of rat alpha6/alpha3beta4 K57T mutant nAChR expressed in Stage V-VI Xenopus laevis Oocytes assessed as inhibition of acetylcholine-induced current in presence of acetylcholine by electrophysiological recording. Type of assay: cell-based. As to conditions: Oocyte.
Assay [22] can be described thus: Inhibition of rat alpha6/alpha3beta4 D161A mutant nAChR expressed in Stage V-VI Xenopus laevis Oocytes assessed as inhibition of acetylcholine-induced current in presence of acetylcholine by electrophysiological recording. Type of assay: cell-based. As to conditions: Oocyte.
For assay [23], the species on record is Rattus norvegicus. In words: Selectivity index, ratio of IC50 for rat alpha6/alpha3beta4 E34M mutant nAChR expressed in Stage V-VI Xenopus laevis oocytes to IC50 for rat alpha6/alpha3beta4 nAChR expressed in Stage V-VI Xenopus laevis Oocytes by electrophysiological recording. Type of assay: cell-based.
The species named for assay [24] is Rattus norvegicus. The experiment in a line: Selectivity index, ratio of IC50 for rat alpha6/alpha3beta4 K57T mutant nAChR expressed in Stage V-VI Xenopus laevis oocytes to IC50 for rat alpha6/alpha3beta4 nAChR expressed in Stage V-VI Xenopus laevis Oocytes by electrophysiological recording. Type of assay: cell-based.

The source made the active and inactive calls. The rule behind the calls is not given here. Peptide text beside a SMILES is read from it.

Usually IC50 stands for the concentration needed to halve the response being measured. In general, inhibition refers to how much of the control response was suppressed. As to `CC(C)[C@H](NC(=O)[C@@H]1CCCN1C(=O)[C@H](CC(N)=O)NC(=O)[C@H](C)NC(=O)[C@H](CS)NC(=O)[C@H](CS)NC(=O)[C@@H](N)CCCNC(=N)N)C(=O)N[C@@H](CS)C(=O)N[C@@H](CC(N)=O)C(=O)NCC(=O)N[C@@H](CCCCN)C(=O)N[C@@H](Cc1cnc[nH]1)C(=O)N[C@@H](CS)C(N)=O` (H-RCCANPVCNGKHC-NH2), the Activity in assay [1] was 96%; in assay [13], 63.8%; in assay [15] it was 22.6%; in [19], 66.3%. In addition, the IC50 in assay [2] is 0.47 µM; in assay [3], 0.959 µM; in assay [5], above 10 µM; in [6], 0.019 µM; in assay [7], above 10 µM; in assay [20] it was 0.0185 µM. Also, the IC50 in assay [21] came to 0.134 µM; in assay [22], 0.063 µM. Also, in [4], the inhibition result was “inactive”. In addition, the inhibition in assay [8] is below 50%; in assay [9] it was below 50%; in [10], below 50%; in assay [11], below 50%; in assay [14], 49.3%; in assay [16], 9.11%. The inhibition in assay [17] stood at 92.7%; in [18] it was 43.2%. Further, the TIME in assay [12] turned out to be 0.333 h. The figures for the Ratio IC50 in assay [23] and in assay [24] were 0.97 and 7, respectively.
